Results on 37 molecules are retold here after patent US11746098B2, “Proteasome activity enhancing compounds” (Proteostasis Therapeutics, Inc., priority 2018, dated 2023).

The target in this assay is USP14 (Homo sapiens, UniProt P54578). Description: USP14 Inhibition Assay. It counts as biochemical. The following applies: average value from a minimum of two experimental determinations, read-out: IC50 Category. An excerpt: The activity of the compound described herein to inhibit USP14 can be measured using previously described methodology [B. H. Lee et al. Nature 2010, 467 (9), 179, the contents of which are expressly incorporated by reference herein].
Example 6: USP14 Inhibition Assay

Each structure is given as a SMILES string.

For the molecule `Cc1cc(C(=O)C[N+]2(C)CCCCC2)c(C)n1-c1ccc(Cl)cc1` [Compound 44, 1-(2-(1-(4-Chlorophenyl)-2,5-dimethyl-1H-pyrrol-3-yl)-2-oxoethyl)-1-methylpiperidin-1-ium Iodide], the half-inhibitory concentration (IC50) is over 5000 nM. Next, `Cc1cc(C(=O)CN2CCCCC2)c(C)n1[C@H]1CC[C@@H](C(=O)OCc2ccccc2)CC1` [Compound 45, cis-Benzyl 4-(2,5-dimethyl-3-(2-(piperidin-1-yl)acetyl)-1H-pyrrol-1-yl)cyclohexanecarboxylate]: over 5000 nM; `Cc1cc(C(=O)CN2CCCCC2)c(C)n1[C@H]1CC[C@@H](C(=O)O)CC1` [Compound 46, cis-4-(2,5-Dimethyl-3-(2-(piperidin-1-yl)acetyl)-1H-pyrrol-1-yl)cyclohexanecarboxylic acid]: over 5000 nM. On to `Cc1cc(C(=O)CNC2CC2)c(C)n1-c1ccc(Cl)cc1` [Compound 48, 1-(1-(4-Chlorophenyl)-2,5-dimethyl-1H-pyrrol-3-yl)-2-(cyclopropylamino)ethanone], for which the IC50 was in the range of 500 to 5000 nM. Next, `Cc1cc(C(=O)CN2CCC(OCc3ccccc3)C2)c(C)n1-c1ccc(Cl)cc1` (stereo not shown) [Compound 49, 2-(3-(Benzyloxy)pyrrolidin-1-yl)-1-(1-(4-chlorophenyl)-2,5-dimethyl-1H-pyrrol-3-yl)ethanone]: 500 to 5000 nM. In the case of `Cc1cc(C(=O)CN2CCCC2CCO)c(C)n1-c1ccc(Cl)cc1` (stereo not shown) [Compound 50, 1-(1-(4-Chlorophenyl)-2,5-dimethyl-1H-pyrrol-3-yl)-2-(2-(2-hydroxyethyl)pyrrolidin-1-yl)ethanone], the IC50 was 500 to 5000 nM.

Consider `Cc1cc(C(=O)CN2CCC(S(C)(=O)=O)C2)c(C)n1-c1ccc(Cl)cc1` (stereo not shown) [Compound 51, 1-(1-(4-Chlorophenyl)-2,5-dimethyl-1H-pyrrol-3-yl)-2-(3-(methylsulfonyl)pyrrolidin-1-yl)ethanone], for which the IC50 lay within 500 to 5000 nM. Consider `Cc1cc(C(=O)CN2CC[C@H](O)C2)c(C)n1-c1ccc(Cl)cc1` [Compound 52, (S)-1-(1-(4-Chlorophenyl)-2,5-dimethyl-1H-pyrrol-3-yl)-2-(3-hydroxypyrrolidin-1-yl)ethanone], for which the IC50 lay in the range of 500 to 5000 nM. For `Cc1cc(C(=O)CN2CCC(C(F)(F)F)CC2)c(C)n1-c1ccc(Cl)cc1` [Compound 53, 1-(1-(4-Chlorophenyl)-2,5-dimethyl-1H-pyrrol-3-yl)-2-(4-(trifluoromethyl)piperidin-1-yl)ethanone], the IC50 was 500 to 5000 nM. Next, `CCCNC(=O)OC1CCCN(CC(=O)c2cc(C)n(-c3ccc(Cl)cc3)c2C)C1` (stereo not shown) [Compound 54, 1-(2-(1-(4-Chlorophenyl)-2,5-dimethyl-1H-pyrrol-3-yl)-2-oxoethyl)piperidin-3-yl propylcarbamate]: 500 to 5000 nM. For `Cc1cc(C(=O)CN2CCC(N(C)C)C2)c(C)n1-c1ccc(Cl)cc1` (stereo not shown) [Compound 55, 1-(1-(4-Chlorophenyl)-2,5-dimethyl-1H-pyrrol-3-yl)-2-(3-(dimethylamino)pyrrolidin-1-yl)ethanone], the IC50 is 500 to 5000 nM. Next, `Cc1cc(C(=O)CN2CCCC2)c(C)n1-c1ccc(Br)c(Cl)c1` [Compound 56, 1-(1-(4-Bromo-3-chlorophenyl)-2,5-dimethyl-1H-pyrrol-3-yl)-2-(pyrrolidin-1-yl)ethanone]: 500 to 5000 nM. As to `Cc1cc(C(=O)CN2CCCCC2)c(C)n1-c1ccc(Br)c(Cl)c1` [Compound 57, 1-(1-(4-Bromo-3-chloropheny1)-2,5-dimethyl-1H-pyrrol-3-yl)-2-(piperidin-1-yl)ethanone], the IC50 fell in the range of 500 to 5000 nM.

With `Cc1cc(C(=O)CN2CCCCC2)c(C)n1-c1ccc(OC(F)(F)F)cc1` [Compound 58, 1-(2,5-Dimethyl-1-(4-(trifluoromethoxy)phenyl)-1H-pyrrol-3-yl)-2-(piperidin-1-yl)ethanone], the IC50 fell in the range of 500 to 5000 nM.

Regarding `Cc1cc(C(=O)CN2CCC(O)CC2)c(C)n1-c1ccc(Br)c(Cl)c1` [Compound 59, 1-(1-(4-Bromo-3-chlorophenyl)-2,5-dimethyl-1H-pyrrol-3-yl)-2-(4-hydroxypiperidin-1-yl)ethanone], the IC50 lay in the range of 500 to 5000 nM. On to `Cc1cc(C(=O)CN2CCC(O)(CN(C)C)C2)c(C)n1-c1ccc(Cl)cc1` (stereo not shown) [Compound 60, 1-(1-(4-Chlorophenyl)-2,5-dimethyl-1H-pyrrol-3-yl)-2-(3-((dimethylamino)methyl)-3-hydroxypyrrolidin-1-yl)ethanone], for which the 50% inhibitory concentration (IC50) lay in the range of 500 to 5000 nM.

In the case of `Cc1cc(C(=O)CN2CCCC2)c(C)n1-c1ccc(OC(F)(F)F)cc1` [Compound 61, 1-(2,5-Dimethyl-1-(4-(trifluoromethoxy)phenyl)-1H-pyrrol-3-yl)-2-(pyrrolidin-1-yl)ethanone], the IC50 was 500 to 5000 nM. Next, `Cc1cc(C(=O)CN2CCC(O)CC2)c(C)n1-c1ccc(OC(F)(F)F)cc1` [Compound 62, 1-(2,5-dimethyl-1-(4-(trifluoromethoxy)phenyl)-1H-pyrrol-3-yl)-2-(4-hydroxypiperidin-1-yl)ethanone]: 500 to 5000 nM; `COc1ccc(-n2c(C)cc(C(=O)CN3CCCCC3)c2C)cc1F` [Compound 63, 1-(1-(3-Fluoro-4-methoxyphenyl)-2,5-dimethyl-1H-pyrrol-3-yl)-2-(piperidin-1-yl)ethanone]: 500 to 5000 nM; `COc1ccc(-n2c(C)cc(C(=O)CN3CCC(O)CC3)c2C)cc1F` [Compound 64, 1-(1-(3-Fluoro-4-methoxyphenyl)-2,5-dimethyl-1H-pyrrol-3-yl)-2-(4-hydroxypiperidin-1-yl)ethanone]: 500 to 5000 nM. Regarding `Cc1cc(C(=O)CN2CCCCC2)c(C)n1C1CCCCC1` [Compound 65, 1-(1-Cyclohexyl-2,5-dimethyl-1H-pyrrol-3-yl)-2-(piperidin-1-yl)ethanone], the IC50 lay in the range of 500 to 5000 nM. Next, `Cc1cc(C(=O)CNC2CCC(C)CC2)c(C)n1-c1ccc(Cl)cc1` (stereo not shown) [Compound 66, 1-(1-(4-Chlorophenyl)-2,5-dimethyl-1H-pyrrol-3-yl)-2-((4-methylcyclohexyl)amino)ethanone]: 500 to 5000 nM. With `Cc1cc(C(=O)CNC2CCCCCC2)c(C)n1-c1ccc(Cl)cc1` [Compound 67, 1-(1-(4-Chlorophenyl)-2,5-dimethyl-1H-pyrrol-3-yl)-2-(cycloheptylamino)ethanone], the IC50 lay in the range of 500 to 5000 nM. Next, `Cc1cc(C(=O)CN2CCCCC2)c(C)n1-c1ccc(C(F)(F)F)cc1` [Compound 68, 1-(2,5-Dimethyl-1-(4-(trifluoromethyl)phenyl)-1H-pyrrol-3-yl)-2-(piperidin-1-yl)ethanone]: 500 to 5000 nM. Next, `Cc1cc(C(=O)CN2CCCCC2)c(C)n1-c1ccc(F)c(F)c1` [Compound 69, 1-(1-(3,4-Difluorophenyl)-2,5-dimethyl-1H-pyrrol-3-yl)-2-(piperidin-1-yl)ethanone]: 500 to 5000 nM; `Cc1cc(C(=O)CN2CCC(O)CC2)c(C)n1-c1ccc(F)c(F)c1` [Compound 70, 1-(1-(3,4-Difluorophenyl)-2,5-dimethyl-1H-pyrrol-3-yl)-2-(4-hydroxypiperidin-1-yl)ethanone]: 500 to 5000 nM. Next, `Cc1cc(C(=O)CC2CCCCN2)c(C)n1-c1ccc(Cl)cc1` (stereo not shown) [Compound 71, 1-(1-(4-Chlorophenyl)-2,5-dimethyl-1H-pyrrol-3-yl)-2-(piperidin-2-yl)ethanone]: 500 to 5000 nM; `Cc1cc(C(=O)CC2CCCCN2C)c(C)n1-c1ccc(Cl)cc1` (stereo not shown) [Compound 72, 1-(1-(4-Chlorophenyl)-2,5-dimethyl-1H-pyrrol-3-yl)-2-(1-methylpiperidin-2-yl)ethanone]: 500 to 5000 nM. As for `Cc1cc(C(=O)CN2CCC(O)CC2)c(C)n1-c1ccc(F)cc1` [Compound 73, 1-(1-(4-Fluorophenyl)-2,5-dimethyl-1H-pyrrol-3-yl)-2-(4-hydroxypiperidin-1-yl)ethanone], the IC50 was 500 to 5000 nM. Next, `Cc1cc(C(=O)CN2CCC(F)CC2)c(C)n1-c1ccc(F)cc1` [Compound 74, 1-(1-(4-Fluorophenyl)-2,5-dimethyl-1H-pyrrol-3-yl)-2-(4-fluoropiperidin-1-yl)ethanone]: 500 to 5000 nM. Next, `Cc1cc(C(=O)CN2CCC(OCC(=O)NC3CC3)CC2)c(C)n1-c1ccc(F)cc1` [Compound 75, N-Cyclopropyl-2-((1-(2-(1-(4-fluorophenyl)-2,5-dimethyl-1H-pyrrol-3-yl)-2-oxoethyl)piperidin-4-yl)oxy)acetamide]: 500 to 5000 nM; `Cc1cc(C(=O)CN2CCCCC2)c(C)n1C1CCC(F)(F)CC1` [Compound 76, 1-(1-(4,4-Difluorocyclohexyl)-2,5-dimethyl-1H-pyrrol-3-yl)-2-(piperidin-1-yl)ethanone]: 500 to 5000 nM.

Take `Cc1cc(C(=O)CNCCO)c(C)n1-c1ccc(C#N)cc1` [Compound 77, 4-(3-(2-((2-Hydroxyethyl)amino)acetyl)-2,5-dimethyl-1H-pyrrol-1-yl)benzonitrile]: the IC50 lay within 500 to 5000 nM. Regarding `CCNC(=O)COC1CCN(CC(=O)c2cc(C)n(-c3ccc(Cl)cc3)c2C)CC1` [Compound 79, 2-((1-(2-(1-(4-Chlorophenyl)-2,5-dimethyl-1H-pyrrol-3-yl)-2-oxoethyl)piperidin-4-yl)oxy)-N-ethylacetamide], the IC50 was under 500 nM. Next, `Cc1cc(C(=O)CN2CCC(OCC(=O)N3CCCCC3)CC2)c(C)n1-c1ccc(Cl)cc1` [Compound 80, 1-(1-(4-Chlorophenyl)-2,5-dimethyl-1H-pyrrol-3-yl)-2-(4-(2-oxo-2-(piperidin-1-yl)ethoxy)piperidin-1-yl)ethanone]: under 500 nM; `Cc1cc(C(=O)CN2CCCCC2)c(C)n1-c1ccc(C#N)cc1` [Compound 81, 4-(2,5-Dimethyl-3-(2-(piperidin-1-yl)acetyl)-1H-pyrrol-1-yl)benzonitrile]: under 500 nM; `CCCNC(=O)COC1CCN(CC(=O)c2cc(C)n(-c3ccc(Cl)cc3)c2C)CC1` [Compound 83, 2-((1-(2-(1-(4-Chlorophenyl)-2,5-dimethyl-1H-pyrrol-3-yl)-2-oxoethyl)piperidin-4-yl)oxy)-N-propylacetamide]: under 500 nM.
